Assay results from patent US20190127456A1, “METHODS OF TREATING IDIOPATHIC PULMONARY FIBROSIS” (FibroGen, Inc., priority 2017, published 2019).
Where two headings read alike, the source gives them in different places.

Assays:
[1] = tested on: radiation-induced lung fibrosis; test: Mouse radiation-induced lung fibrosis model: lung volume by HRCT; type: in vivo; details: 14.5 Gy irradiated mice, treated 8 weeks from week 16, measured at 24 weeks; FIG. 4
Description: The objective of this study was to compare the activity of pamrevlumab monotherapy to either pirfenidone or nintedanib alone, and to evaluate the potential for enhanced activity of the combined agents. […] In this study, mice received thoracic irradiation (RT), followed by the therapeutic administration of the agents at 16 weeks post-irradiation when lung remodeling was evident by HRCT. After 8 weeks of drug treatment, lung density and volume were assessed by HRCT, lung function was assessed by blood gas analysis, and mice were sacrificed for histologic and gene expression analysis. C57B1/6 mice were irradiated with 14.5 Gy photons; full thorax, single dose. Treatment with therapeutic agent(s) (pamrevlumab, pirfenidone, and/or nintedanib) was initiated 16 weeks post-irradiation and continued for 8 weeks. Pamrevlumab (FG) was given IP, BIW, at 40 mg/kg; pirfenidone (PF) was given PO in chow, QD, at 300 mg/kg; nintedanib (ND) was given PO in chow, QD, at 100 mg/kg. Treatment with each agent alone, with combinations of two, and with a triple combination were carried out. Controls included non-irradiated mice, mice that were irradiated and not treated, and mice that were irradiated and given human IgG. Endpoint measurements were taken at 24 weeks for HRCT (lung structure), blood gas analysis (lung function), histology and gene expression analysis. […]

[2] = tested on: radiation-induced lung fibrosis; test: Mouse radiation-induced lung fibrosis model: lung function by blood gas analysis; type: in vivo; details: blood gas analysis at 24 weeks, compared to RT with no treatment; data not shown
Description: The objective of this study was to compare the activity of pamrevlumab monotherapy to either pirfenidone or nintedanib alone, and to evaluate the potential for enhanced activity of the combined agents. […] In this study, mice received thoracic irradiation (RT), followed by the therapeutic administration of the agents at 16 weeks post-irradiation when lung remodeling was evident by HRCT. After 8 weeks of drug treatment, lung density and volume were assessed by HRCT, lung function was assessed by blood gas analysis, and mice were sacrificed for histologic and gene expression analysis. C57B1/6 mice were irradiated with 14.5 Gy photons; full thorax, single dose. Treatment with therapeutic agent(s) (pamrevlumab, pirfenidone, and/or nintedanib) was initiated 16 weeks post-irradiation and continued for 8 weeks. Pamrevlumab (FG) was given IP, BIW, at 40 mg/kg; pirfenidone (PF) was given PO in chow, QD, at 300 mg/kg; nintedanib (ND) was given PO in chow, QD, at 100 mg/kg. Treatment with each agent alone, with combinations of two, and with a triple combination were carried out. Controls included non-irradiated mice, mice that were irradiated and not treated, and mice that were irradiated and given human IgG. […] The effect of the treatments on lung function was assessed by blood gas analysis (data not shown).

[3] = tested on: fibrosis genes in irradiated lung; test: Microarray analysis of mRNA transcripts in irradiated lung; type: in vivo, mouse; details: for % Normalization of gene expression, Igfbp5 / % Normalization of gene expression, Abca3 / % Normalization of gene expression, Gdf2 / % Normalization of gene expression, Cx3cl1 / % Normalization of gene expression, Retnla / % Normalization of gene expression, Nt5e / % Normalization of gene expression, Plat / % Normalization of gene expression, Ccr2 / % Normalization of gene expression, Igfbp7 / % Normalization of gene expression, Cdkn2a / % Normalization of gene expression, Apln / % Normalization of gene expression, Wisp1: irradiated mouse lung, 24 weeks after RT, 8 weeks treatment; for % Normalization of gene expression, Igfbp5: RT fold change 0.3; for % Normalization of gene expression, Abca3 / % Normalization of gene expression, Gdf2: RT fold change 0.4; for % Normalization of gene expression, Cx3cl1: RT fold change 0.5; for % Normalization of gene expression, Retnla: RT fold change 2.0; for % Normalization of gene expression, Nt5e: RT fold change 2.1; for % Normalization of gene expression, Plat: RT fold change 2.2; for % Normalization of gene expression, Ccr2: RT fold change 2.4; for % Normalization of gene expression, Igfbp7: RT fold change 2.6; for % Normalization of gene expression, Cdkn2a: RT fold change 2.7; for % Normalization of gene expression, Apln: RT fold change 5.3; for expression of the Wisp 1 and Nt5e genes: monotherapy compared to RT treatment alone
Description: C57B1/6 mice were irradiated with 14.5 Gy photons; full thorax, single dose. Treatment with therapeutic agent(s) (pamrevlumab, pirfenidone, and/or nintedanib) was initiated 16 weeks post-irradiation and continued for 8 weeks. Pamrevlumab (FG) was given IP, BIW, at 40 mg/kg; pirfenidone (PF) was given PO in chow, QD, at 300 mg/kg; nintedanib (ND) was given PO in chow, QD, at 100 mg/kg. Treatment with each agent alone, with combinations of two, and with a triple combination were carried out. Controls included non-irradiated mice, mice that were irradiated and not treated, and mice that were irradiated and given human IgG. Endpoint measurements were taken at 24 weeks for HRCT (lung structure), blood gas analysis (lung function), histology and gene expression analysis.
Microarray analysis of mRNA transcripts of numerous genes at 24 weeks after RT were carried out by standard techniques to compare the expression profiles of irradiated and treated animals to irradiated animals that were not further treated. The results of the later group, RT (control), were used to normalize the expression data from the other groups. Briefly, RNA from 4-7 animals per condition (RT (control), RT+hIgG, RT+FG, RT+ND, RT+PF, RT+FG+ND, RT+FG+PF, RT+ND+PF, RT+FG+ND+PF). Affymetrix 430 2.0 data was used. RT induced changes (≥1.5×, p<0.05) were filtered for treatment dependent correction (>50% correction, p<0.05). 80 RT-induced and 68 RT-suppressed transcripts were normalized at least 50% by one or more treatments. The resulting list was dominated by pamrevlumab-dependent normalization. Functional analysis indicated pamrevlumab treatment preferentially normalized RT genes known to be regulated by TGFβ and TNF.

[4] = cited from earlier work
[5] = IPF patients; cited from earlier work
[6] = combined clinical studies of pirfenidone, cited from earlier work
[7] = tested on: IPF; details: Week 52, Phase 3 clinical study; cited from earlier work

| SMILES | % Normalization of gene expression, Igfbp5 [3] [%] | % Normalization of gene expression, Abca3 [3] [%] | % Normalization of gene expression, Gdf2 [3] [%] | % Normalization of gene expression, Cx3cl1 [3] [%] | % Normalization of gene expression, Retnla [3] [%] | % Normalization of gene expression, Nt5e [3] [%] | % Normalization of gene expression, Plat [3] [%] | % Normalization of gene expression, Ccr2 [3] [%] | % Normalization of gene expression, Igfbp7 [3] [%] | % Normalization of gene expression, Cdkn2a [3] [%] | % Normalization of gene expression, Apln [3] [%] | % Normalization of gene expression, Wisp1 ([3]; RT fold change 6.9) [%] | % Normalization of gene expression, Wisp1 ([3]; RT fold change 11.9) [%] | expression of the Wisp 1 and Nt5e genes [3] | other results |
| --- | --- | --- | --- | --- | --- | --- | --- | --- | --- | --- | --- | --- | --- | --- | --- |
| COC(=O)c1ccc2c(c1)NC(=O)/C2=C(\Nc1ccc(N(C)C(=O)CN2CCN(C)CC2)cc1)c1ccccc1 [nintedanib] | 54 | −35 | 33 | −21 | −9 | −22 | −55 | 10 | 10 | 9 | 6 | −7 | −18 | further induction of expression | radiation-induced lung volume decrease [1]: not statistically different; O2 saturation [2]: normalized O2 saturation; patients with arterial thromboembolic events ([4]; a clinical trial of nintedanib): 2.5%; patients experiencing abdominal pain ([4]; clinical trials of nintedanib): 15%; patients experiencing vomiting ([4]; clinical trials of nintedanib): 12%; patients experiencing nausea ([4]; clinical trials of nintedanib, placebo 7%): 24%; patients experiencing diarrhea ([4]; clinical trials of nintedanib, placebo 18%): 62%; plasma half-life [5]: 9.5 h |
| Cc1ccc(=O)n(-c2ccccc2)c1 [pirfenidone, 5-methyl-1-phenyl-2-(1H)-pyridone] | 27 | −20 | 10 | −8 | −7 | −58 | 0 | −20 | −6 | −37 | 41 | −21 | −78 | further induction of expression | patients experiencing abdominal pain [6]: 24%; patients experiencing vomiting [6]: 13%; patients with skin rash [6]: 30%; patients experiencing nausea ([6]; placebo 16%): 36%; patients experiencing diarrhea ([6]; placebo 20%): 26%; mean UCSD-SOBQ score over placebo treated patients [7]: no statistical significance |
